What follows are compounds tested against ALK2 (Homo sapiens (Human), UniProt Q04771) (assay: ALK2 inhibition, LanthaScreen Eu Kinase Binding Assay (ThermoFisher Scientific / Life Technologies)). Settings: read-out: Measured Ki (IC50) Value for Compounds: IC50.
Protocol: Biochemical assays to measure the inhibitory effects of the compounds were performed by ThermoFisher Scientific (Life Technologies). ALK2 inhibition was tested using LanthaScreen™ Eu Kinase Binding Assay screening protocol.

Chain of ALK2 (Q04771 21-509): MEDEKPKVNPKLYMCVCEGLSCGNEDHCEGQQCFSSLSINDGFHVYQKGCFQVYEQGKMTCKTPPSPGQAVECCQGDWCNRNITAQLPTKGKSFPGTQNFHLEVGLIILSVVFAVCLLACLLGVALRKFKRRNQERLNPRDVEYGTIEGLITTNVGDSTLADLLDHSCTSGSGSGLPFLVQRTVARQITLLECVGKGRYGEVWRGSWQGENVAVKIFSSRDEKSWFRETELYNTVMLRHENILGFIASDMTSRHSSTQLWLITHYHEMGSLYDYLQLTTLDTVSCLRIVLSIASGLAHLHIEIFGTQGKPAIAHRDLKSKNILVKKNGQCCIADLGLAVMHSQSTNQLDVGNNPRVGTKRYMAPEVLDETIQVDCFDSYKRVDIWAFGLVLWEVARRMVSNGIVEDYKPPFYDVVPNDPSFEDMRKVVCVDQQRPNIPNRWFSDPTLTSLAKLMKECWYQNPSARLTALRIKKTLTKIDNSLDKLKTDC

Row | SMILES | IC50 [nM]
1 | COc1cc(-n2cnc(Nc3nc(N4CCC[C@H]4C(N)=O)nc4c3c(C)nn4C3CCCCO3)c2)cc(OC)c1OC (stereo partly drawn) [Compound 401a, (2S)-1-(3-methyl-1-(tetrahydro-2H-pyran-2-yl)-4-((1-(3,4,5-trimethoxyphenyl)-1H-imidazol-4-yl)amino)-1H-pyrazolo[3,4-d]pyrimidin-6-yl)pyrrolidine-2-carboxamide] | > 1000
2 | COc1cc(-n2cnc(Nc3nc(N4CCC[C@H]4C(N)=O)nc4[nH]nc(C)c34)c2)cc(OC)c1OC [Compound 401b, (S)-1-(3-methyl-4-((1-(3,4,5-trimethoxyphenyl)-1H-imidazol-4-yl)amino)-1H-pyrazolo[3,4-d]pyrimidin-6-yl)pyrrolidine-2-carboxamide] | > 1000
3 | COc1cc(-n2cnc(Nc3nc(N4CCC[C@H]4CO)c4c(C)nn(C5CCCCO5)c4n3)c2)cc(OC)c1OC (stereo partly drawn) [Compound 402b, ((2S)-1-(3-methyl-1-(tetrahydro-2H-pyran-2-yl)-6-((1-(3,4,5-trimethoxyphenyl)-1H-imidazol-4-yl)amino)-1H-pyrazolo[3,4-d]pyrimidin-4-yl)pyrrolidin-2-yl)methanol] | < 100
4 | COc1cc(-n2cnc(Nc3nc(N4CCC[C@H]4CO)c4c(C)n[nH]c4n3)c2)cc(OC)c1OC [Compound 402c, (S)-(1-(3-methyl-6-((1-(3,4,5-trimethoxyphenyl)-1H-imidazol-4-yl)amino)-1H-pyrazolo[3,4-d]pyrimidin-4-yl)pyrrolidin-2-yl)methanol] | < 100
5 | COc1cc(-n2cnc(Nc3nc(N4CCC[C@H]4C(N)=O)nc4sc(CN5CCCC5)cc34)c2)cc(OC)c1OC [Compound 403h, (S)-1-(6-(pyrrolidin-1-ylmethyl)-4-((1-(3,4,5-trimethoxyphenyl)-1H-imidazol-4-yl)amino)thieno[2,3-d]pyrimidin-2-yl)pyrrolidine-2-carboxamide] | < 100
6 | COc1cc(-n2cnc(Nc3nc(N4CCC[C@H]4C(N)=O)nc4sc(CN5CCC(O)CC5)cc34)c2)cc(OC)c1OC [Compound 404b, (S)-1-(6-((4-hydroxypiperidin-1-yl)methyl)-4-((1-(3,4,5-trimethoxyphenyl)-1H-imidazol-4-yl)amino)thieno[2,3-d]pyrimidin-2-yl)pyrrolidine-2-carboxamide] | < 100
7 | COc1cc(-n2cnc(Nc3nc(N4CCC[C@H]4C(N)=O)nc4sc(CN5CCN(C)CC5)cc34)c2)cc(OC)c1OC [Compound 405b, (S)-1-(6-((4-methylpiperazin-1-yl)methyl)-4-((1-(3,4,5-trimethoxyphenyl)-1H-imidazol-4-yl)amino)thieno[2,3-d]pyrimidin-2-yl)pyrrolidine-2-carboxamide] | < 100
8 | COc1cc(-n2cnc(Nc3nc(N4CCC[C@H]4C(N)=O)nc4sc(CN5CCCCC5)cc34)c2)cc(OC)c1OC [Compound 406b, (S)-1-(6-(piperidin-1-ylmethyl)-4-((1-(3,4,5-trimethoxyphenyl)-1H-imidazol-4-yl)amino)thieno[2,3-d]pyrimidin-2-yl)pyrrolidine-2-carboxamide] | < 100
9 | COc1cc(-n2cnc(Nc3nc(N4CCC[C@H]4C(N)=O)nc4sc(CN5CCOCC5)cc34)c2)cc(OC)c1OC [Compound 407b, (S)-1-(6-(morpholinomethyl)-4-((1-(3,4,5-trimethoxyphenyl)-1H-imidazol-4-yl)amino)thieno[2,3-d]pyrimidin-2-yl)pyrrolidine-2-carboxamide] | < 100
10 | COc1cc(-n2cnc(Nc3nc(N4CCC[C@H]4C(N)=O)nc4sc(CN5CCN(c6ccccn6)CC5)cc34)c2)cc(OC)c1OC [Compound 408b, (S)-1-(6-((4-(pyridin-2-yl)piperazin-1-yl)methyl)-4-((1-(3,4,5-trimethoxyphenyl)-1H-imidazol-4-yl)amino)thieno[2,3-d]pyrimidin-2-yl)pyrrolidine-2-carboxamide] | < 100
11 | COc1cc(-n2cnc(Nc3nc(N4CCCCC4)c4ccc(CN5CCCC5)cc4n3)c2)cc(OC)c1OC [Compound 409e, 4-(piperidin-1-yl)-7-(pyrrolidin-1-ylmethyl)-N-(1-(3,4,5-trimethoxyphenyl)-1H-imidazol-4-yl)quinazolin-2-amine] | < 100
12 | COc1cc(-n2cnc(Nc3nc(N4CCC[C@H]4CO)nn4c(C(=O)N5CCCCC5)ccc34)c2)cc(OC)c1OC [Compound 410e, (S)-(2-(2-(hydroxymethyl)pyrrolidin-1-yl)-4-((1-(3,4,5-trimethoxyphenyl)-1H-imidazol-4-yl)amino)pyrrolo[2,1-f][1,2,4]triazin-7-yl)(piperidin-1-yl)methanone] | < 100
13 | COC(=O)c1cc(Nc2cn(-c3cc(OC)c(OC)c(OC)c3)cn2)c2occc2c1 [Compound 411b, methyl 7-((1-(3,4,5-trimethoxyphenyl)-1H-imidazol-4-yl)amino)benzofuran-5-carboxylate] | 100 to 1000
14 | COc1cc(-n2cnc(Nc3cc(C(=O)O)cc4ccoc34)c2)cc(OC)c1OC [Compound 411c, 7-((1-(3,4,5-trimethoxyphenyl)-1H-imidazol-4-yl)amino)benzofuran-5-carboxylic acid] | 100 to 1000
15 | COc1cc(-n2cnc(Nc3cc(C(=O)N4CCC[C@H]4C(N)=O)cc4ccoc34)c2)cc(OC)c1OC [Compound 411d, (S)-1-(7-((1-(3,4,5-trimethoxyphenyl)-1H-imidazol-4-yl)amino)benzofuran-5-carbonyl)pyrrolidine-2-carboxamide] | 100 to 1000
16 | COc1cc(-n2cnc(Nc3cc(C(=O)N4CCCC4)cc4ccoc34)c2)cc(OC)c1OC [Compound 412a, pyrrolidin-1-yl(7-((1-(3,4,5-trimethoxyphenyl)-1H-imidazol-4-yl)amino)benzofuran-5-yl)methanone] | 100 to 1000
17 | COc1cc(-n2cnc(Nc3cc(C(=O)N4CCC[C@@H](N)C4)cc4ccoc34)c2)cc(OC)c1OC [Compound 413b, (R)-(3-aminopiperidin-1-yl)(7-((1-(3,4,5-trimethoxyphenyl)-1H-imidazol-4-yl)amino)benzofuran-5-yl)methanone] | 100 to 1000
18 | OC[C@@H]1CCCN1c1nc(Nc2cn(-c3ccc(OC(F)(F)F)cc3)cn2)c2cccn2n1 [Compound 414d, (S)-(1-(4-((1-(4-(trifluoromethoxy)phenyl)-1H-imidazol-4-yl)amino)pyrrolo[2,1-f][1,2,4]triazin-2-yl)pyrrolidin-2-yl)methanol] | 100 to 1000
19 | COc1cc(-n2cnc(Nc3nc(N4CCC[C@H]4CO)c4cccn4n3)n2)cc(OC)c1OC [Compound 415d, (S)-(1-(2-((1-(3,4,5-trimethoxyphenyl)-1H-1,2,4-triazol-3-yl)amino)pyrrolo[2,1-f][1,2,4]triazin-4-yl)pyrrolidin-2-yl)methanol] | 100 to 1000
20 | COC(=O)c1cc(OC)cc(-n2cnc(Nc3nc(N4CCC[C@H]4CO)nn4cccc34)c2)c1 [Compound 416e, (S)-methyl 3-(4-((2-(2-(hydroxymethyl)pyrrolidin-1-yl)pyrrolo[2,1-f][1,2,4]triazin-4-yl)amino)-1H-imidazol-1-yl)-5-methoxybenzoate] | < 100
21 | COc1cc(C(=O)N2CCC[C@H]2CO)cc(-n2cnc(Nc3nc(N4CCC[C@H]4CO)nn4cccc34)c2)c1 [Compound 416f, ((S)-2-(hydroxymethyl)pyrrolidin-1-yl)(3-(4-((2-((S)-2-(hydroxymethyl)pyrrolidin-1-yl)pyrrolo[2,1-f][1,2,4]triazin-4-yl)amino)-1H-imidazol-1-yl)-5-methoxyphenyl)methanone] | 100 to 1000
22 | OC[C@@H]1CCCN1c1nc(Nc2cn(-c3ccc(OC(F)(F)F)c(Cl)c3)cn2)c2cccn2n1 [Compound 417e, (S)-(1-(4-((1-(3-chloro-4-(trifluoromethoxy)phenyl)-1H-imidazol-4-yl)amino)pyrrolo[2,1-f][1,2,4]triazin-2-yl)pyrrolidin-2-yl)methanol] | > 1000
23 | COc1cc(-c2nnc(Nc3nc(N4CCC[C@H]4CO)c4cccn4n3)o2)cc(OC)c1OC [Compound 418b, (S)-(1-(2-((5-(3,4,5-trimethoxyphenyl)-1,3,4-oxadiazol-2-yl)amino)pyrrolo[2,1-f][1,2,4]triazin-4-yl)pyrrolidin-2-yl)methanol] | > 1000
24 | COc1cc(-n2cnc(Nc3nc(C(=O)N4CCCC4)c4cccn4n3)c2)cc(OC)c1OC [Compound 419b, pyrrolidin-1-yl(2-((1-(3,4,5-trimethoxyphenyl)-1H-imidazol-4-yl)amino)pyrrolo[2,1-f][1,2,4]triazin-4-yl)methanone] | 100 to 1000
25 | OC[C@@H]1CCCN1c1nc(Nc2cn(-c3ccc(OC(F)(F)F)c(Br)c3)cn2)c2cccn2n1 [Compound 420e, (S)-(1-(4-((1-(3-bromo-4-(trifluoromethoxy)phenyl)-1H-imidazol-4-yl)amino)pyrrolo[2,1-f][1,2,4]triazin-2-yl)pyrrolidin-2-yl)methanol] | > 1000
26 | OC[C@@H]1CCCN1c1nc(Nc2cn(-c3ccncc3)cn2)c2cccn2n1 [Compound 421e, (S)-(1-(4-((1-(pyridin-4-yl)-1H-imidazol-4-yl)amino)pyrrolo[2,1-f][1,2,4]triazin-2-yl)pyrrolidin-2-yl)methanol] | < 100
27 | COc1cc(-n2cnc(Nc3nc(N4CCN(CCO)CC4)nc4sccc34)c2)cc(OC)c1OC [Compound 422a, 2-(4-(4-((1-(3,4,5-trimethoxyphenyl)-1H-imidazol-4-yl)amino)thieno[2,3-d]pyrimidin-2-yl)piperazin-1-yl)ethanol] | < 100
28 | OC[C@@H]1CCCN1c1nc(Nc2cn(-c3ccc4c(c3)OCCO4)cn2)c2cccn2n1 [Compound 423e, (S)-(1-(4-((1-(2,3-dihydrobenzo[b][1,4]dioxin-6-yl)-1H-imidazol-4-yl)amino)pyrrolo[2,1-f][1,2,4]triazin-2-yl)pyrrolidin-2-yl)methanol] | 100 to 1000
29 | OC[C@@H]1CCCN1c1nc(Nc2cn(-c3cccc4c3OCO4)cn2)c2cccn2n1 [Compound 424e, (S)-(1-(4-((1-(benzo[d][1,3]dioxol-4-yl)-1H-imidazol-4-yl)amino)pyrrolo[2,1-f][1,2,4]triazin-2-yl)pyrrolidin-2-yl)methanol] | < 100

— US11661426B2, “Imidazole-containing inhibitors of ALK2 kinase” (BioCryst Pharmaceuticals, Inc., priority 2017, dated 2023)
